Experimental data as given in patent US20160368898A1, “2-PYRIDYLOXY-4-METHYL OREXIN RECEPTOR ANTAGONISTS” (MERCK SHARP & DOHME CORP., priority 2013, published 2016).

Key:
[1] = target: T1, human orexin-2 receptor (hOX2R) (Homo sapiens, UniProt O43614); assay: FLIPR Ca2+ Flux Assay, CHO cells expressing the human orexin-2 receptor; assay type: cell-based; details: agonist 70 pM Ala-6,12 human orexin-A
T1 construct: expressed in transfected cells; host or cells: CHO cells (grown under G418)
T1 sequence (O43614 1-444): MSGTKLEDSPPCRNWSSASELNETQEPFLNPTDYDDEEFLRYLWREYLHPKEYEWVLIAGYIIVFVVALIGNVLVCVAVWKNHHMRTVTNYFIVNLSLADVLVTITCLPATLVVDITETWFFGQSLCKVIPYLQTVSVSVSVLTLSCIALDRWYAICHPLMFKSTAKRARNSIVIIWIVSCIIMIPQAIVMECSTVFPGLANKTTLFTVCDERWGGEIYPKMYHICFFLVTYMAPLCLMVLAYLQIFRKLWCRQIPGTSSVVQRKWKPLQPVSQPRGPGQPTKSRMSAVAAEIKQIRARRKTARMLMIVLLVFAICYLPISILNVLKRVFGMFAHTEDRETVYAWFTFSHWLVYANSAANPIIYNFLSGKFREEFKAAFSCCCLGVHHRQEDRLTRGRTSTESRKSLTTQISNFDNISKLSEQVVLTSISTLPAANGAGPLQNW
Protocol: The utility of the compounds in accordance with the present invention as orexin receptor OX1R and/or OX2R antagonists may be readily determined without undue experimentation by methodology well known in the art, including the “FLIPR Ca^2+ Flux Assay” (Okumura et al., Biochem. Biophys. Res. Comm. 280:976-981, 2001). In a typical experiment the OX1 and OX2 receptor antagonistic activity of the compounds of the present invention was determined in accordance with the following experimental method. For intracellular calcium measurements, Chinese hamster ovary (CHO) cells expressing the rat orexin-1 receptor or the human orexin-2 receptor, are grown in Iscove's modified DMEM containing 2 mM L-glutamine, […], 1% hypoxanthine-thymidine supplement, 100 U/ml penicillin, 100 μg/ml streptomycin and 10% heat-inactivated fetal calf serum (FCS). The cells are seeded at 20,000 cells/well into Becton-Dickinson black 384-well clear bottom sterile plates coated with poly-D-lysine. All reagents were from GIBCO-Invitrogen Corp. The seeded plates are incubated overnight at 37° C. and 5% CO2. Ala-6,12 human orexin-A as the agonist is prepared as a 1 mM stock solution in 1% bovine serum albumin (BSA) and diluted in assay buffer (HBSS containing 20 mM HEPES, 0.1% BSA and 2.5 mM probenecid, pH7.4) for use in the assay at a final concentration of 70 pM. Test compounds are prepared as 10 mM stock solution in DMSO, then diluted in 384-well plates, first in DMSO, then assay buffer. On the day of the assay, cells are washed 3 times with 100 μl assay buffer and then incubated for 60 min (37° C., 5% CO2) in 60 μl assay buffer containing 1 μM Fluo-4AM ester, 0.02% pluronic acid, and 1% BSA. The dye loading solution is then aspirated and cells are washed 3 times with 100 μl assay buffer. 30 μl of that same buffer is left in each well. Within the Fluorescent Imaging Plate Reader (FLIPR, Molecular Devices), test compounds are added to the plate in a volume of 25 μl, incubated for 5 min and finally 25 μl of agonist is added. Fluorescence is measured for each well at 1 second intervals for 5 minutes and the height of each fluorescence peak is compared to the height of the fluorescence peak induced by 70 pM Ala-6,12 orexin-A with buffer in place of antagonist. For each antagonist, IC50 value (the concentration of compound needed to inhibit 50% of the agonist response) is determined. Alternatively, compound potency can be assessed by a radioligand binding assay (described in Bergman et. al. Bioorg. Med. Chem. Lett. 2008, 18, 1425-1430) in which the inhibition constant (Ki) is determined in membranes prepared from CHO cells expressing either the OX1 or OX2 receptor. The intrinsic orexin receptor antagonist activity of a compound which may be used in the present invention may be determined by these assays.

hOX1R = target: T2, hOX1R (Homo sapiens, UniProt O43613); assay: FLIPR Ca2+ Flux Assay, CHO cells expressing the orexin-1 receptor; assay type: cell-based; details: agonist 70 pM Ala-6,12 human orexin-A
T2 construct: expressed in transfected cells; host or cells: CHO cells (grown under G418)
T2 sequence (O43613 1-425): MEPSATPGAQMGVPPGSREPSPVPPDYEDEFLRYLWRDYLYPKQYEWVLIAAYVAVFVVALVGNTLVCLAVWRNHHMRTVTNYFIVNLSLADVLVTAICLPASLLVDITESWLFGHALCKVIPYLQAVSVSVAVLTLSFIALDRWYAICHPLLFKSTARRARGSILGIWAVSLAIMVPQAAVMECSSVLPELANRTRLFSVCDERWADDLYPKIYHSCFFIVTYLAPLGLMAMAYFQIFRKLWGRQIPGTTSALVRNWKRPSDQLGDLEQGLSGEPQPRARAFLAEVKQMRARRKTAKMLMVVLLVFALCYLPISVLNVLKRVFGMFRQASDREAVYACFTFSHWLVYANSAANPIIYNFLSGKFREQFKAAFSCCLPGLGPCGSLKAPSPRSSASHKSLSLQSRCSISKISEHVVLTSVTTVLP

Cc1ccnc(O[C@@H]2CC[C@@H](C)N(C(=O)c3sccc3-c3ncccn3)C2)c1 [Example 22, 2-[2-({(2R,5R)-2-methyl-5-[(4-methylpyridin-2-yl)oxy]piperidin-1-yl}carbonyl)thiophen-3-yl]pyrimidine]
IC50 [1]: 17 nM
IC50 (hOX1R): 791 nM
